From article PMC6274495, “Purification and Characterization of a White Laccase with Pronounced Dye Decolorizing Ability and HIV-1 Reverse Transcriptase Inhibitory Activity from Lepista nuda” (Molecules, 2016) come the findings set out here.

The test system of this assay is T1, L. nuda laccase.
T1 construct: gene EC 1.10.3.2; native, purified from culture broth (fraction SU3); 56 kDa monomer; white laccase
Put plainly: spectrophotometric oxidation, Lineweaver-Burk plot. Type of assay: biochemical, Collybia nuda. To be noted: HAc-NaAc buffer pH 4.6, 25 °C.

Structures are written as SMILES. Structures can show the parent of a compound that is named as a salt.

Turning to `CCn1c(=NN=c2sc3cc(S(=O)(=O)O)ccc3n2CC)sc2cc(S(=O)(=O)O)ccc21` [ABTS, 2,7-azinobis(3-ethylbenzothia-zolone-6-sulfonic acid) diammonium salt], the Michaelis-Menten constant (Km) was determined as 190 µM.
